What all share (assay): growth of human tumour cells (NCI), 48 h
For assay [1], the system named is MDA-MB-435.
Assay [2] concerns RPMI-8226 leukemia.
Assay [3] deals with HL-60(TB) leukemia.
For assay [4], the system named is EKVX NSCLC.
Assay [5] has as its system NCI-H460 lung.
For assay [6], the system named is SNB-75 CNS.
Assay [7] concerns A498 renal.
Assay [8] has as its system MALME-3M melanoma.
Assay [9] has as its system SR leukemia.
For assay [10], the system named is NCI-H23 lung.
Assay [11] deals with OVCAR-8 ovarian.
For assay [12], the system named is UO-31 renal.
In assay [13] the test system is MDA-MB-231 breast.
The subject of assay [14] is OVCAR-3 ovarian.
Assay [15] deals with SN12C renal.
Assay [16] concerns SK-MEL-2 melanoma.

Molecules are shown by their SMILES.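 1) Cells in 96-well plates. 2) Compound, 48 h, 5 concentrations. 3) Linear interpolation between surrounding doses. 4) Unreached endpoint = highest concentration. TGI marks complete inhibition of growth.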

`Cc1c(C(=O)c2ccc(N)c3ccccc23)c2ccccc2n1CCN1CCOCC1`: the TGI was 37 µM in assay [1]; more than 61.1 µM in [2]; 58.1 µM in [3]; more than 92.2 µM in assay [4]; more than 77.1 µM in assay [5]; 47.4 µM in assay [6]. Also, the TGI in assay [7] was 81.8 µM; in [8] it was 61.8 µM; in assay [9], more than 85.3 µM; in assay [10] it was more than 100 µM; in assay [11], more than 94.5 µM; in assay [12] it was 86.6 µM. Moreover, the TGI was more than 100 µM in assay [13], 41.3 µM in assay [14], more than 94.1 µM in [15] and 47.2 µM in assay [16].
Consider `Nc1ccc(-c2nc3ccccc3s2)cc1Cl`, for which the TGI in assay [1] was more than 100 µM; in assay [2], more than 100 µM; in assay [3] it was more than 100 µM; in [4], more than 100 µM; in [5], more than 100 µM; in assay [6], more than 93.5 µM. Further, the TGI is 4.17 µM in assay [7]; more than 100 µM in assay [8]; more than 100 µM in assay [9]; more than 100 µM in [10]; more than 100 µM in assay [11]; more than 100 µM in assay [12]. In addition, the TGI in [13], in assay [14], in assay [15] and in [16] was more than 100 µM in each case.
Turning to `C[C@]12CC[C@H]3[C@@H](CCC4=CC(=O)C=C[C@@]43OC(=O)C(F)(F)F)[C@@H]1CCC2=O`, the TGI in assay [1], in [2], in assay [3], in assay [4], in assay [5] and in [6] was more than 100 µM each time. Besides, the TGI in assay [7], in assay [8], in assay [9], in [10], in assay [11] and in assay [12] was more than 100 µM each time. The TGI in assay [13], in [14], in [15] and in [16] was more than 100 µM throughout.
As to `O=C(O)CSc1ccccc1C(=O)O`, the TGI in assay [1] is more than 100 µM; in [2], more than 100 µM; in assay [3], more than 100 µM; in assay [4], more than 100 µM; in [5], 38.1 µM; in [6], more than 100 µM. The TGI in [7], in assay [8], in assay [9], in assay [10], in assay [11] and in assay [12] was more than 100 µM throughout. Moreover, the TGI in assay [13], in assay [14], in assay [15] and in assay [16] was more than 100 µM throughout.
As for `CN(Cc1cnc2nc(N)nc(N)c2n1)c1ccc(C(=O)NC23CC4CC(CC(C4)C2)C3)cc1`, the TGI was 31.6 µM in assay [1]; 70.8 µM in assay [2]; more than 100 µM in assay [3]; 32.5 µM in [4]; 18.6 µM in [5]; 38.9 µM in assay [6]. Also, the TGI in assay [7] is more than 100 µM; in assay [8] it was 26.3 µM; in assay [9], more than 100 µM; in [10], 22.3 µM; in assay [11] it was 19.9 µM; in [12], 24.1 µM. Further, the TGI in [13] was 39.5 µM; in assay [14], 30.5 µM; in [15], 56.8 µM; in assay [16], 23.6 µM.
Consider `CN1/C(=C/C=C/C=C/C=C2C(=O)c3ccccc3C2=O)C(C)(C)c2ccccc21`, for which the TGI in assay [1], in assay [2], in assay [3], in assay [4], in assay [5] and in [6] was more than 100 µM in each case. In addition, the TGI in [7] was 65.2 µM; in assay [8] it was 94.1 µM; in assay [9], more than 100 µM; in assay [10] it was more than 100 µM; in assay [11], more than 100 µM; in [12], more than 100 µM. Also, the TGI was more than 100 µM in assay [13], more than 100 µM in assay [14], more than 100 µM in [15] and 66.3 µM in [16].
Consider `O[C@@H]1C=C[C@]23CCN(Cc4cc5c(cc42)OCO5)[C@@H]3C1`, for which the TGI in assay [1], in assay [2], in [3], in assay [4], in assay [5] and in [6] was more than 100 µM each time. Also, the TGI in assay [7], in assay [8], in assay [9], in assay [10], in [11] and in [12] was more than 100 µM throughout. For the same compound, the TGI in assay [13], in assay [14], in assay [15] and in [16] was more than 100 µM each time.
Turning to `COC(=O)C1CC2(C)C=CC1N(C(=O)OCc1ccccc1)C2` (stereo not drawn), the TGI in assay [1] was more than 100 µM; in assay [2], more than 100 µM; in [3] it was 70.7 µM; in [4], more than 100 µM; in [5], more than 100 µM; in assay [6], more than 100 µM. Further, the TGI in assay [7], in [8], in assay [9], in assay [10], in [11] and in [12] was more than 100 µM throughout. Moreover, the TGI in assay [13], in [14], in assay [15] and in assay [16] was more than 100 µM each time.
With `COC(=O)C1=C(OC(=O)/C(=C/c2ccccc2)c2ccc(OC)cc2)C(C(=O)OC)[C@@]2(O)[C@@H](C(=O)OC)[C@H](C)C[C@@H]1[C@@H]2C(=O)OC` (stereo partly drawn), the TGI in assay [1], in assay [2], in [3], in assay [4], in assay [5] and in [6] was more than 100 µM throughout. Further, the TGI in assay [7], in assay [8], in assay [9], in assay [10], in assay [11] and in assay [12] was more than 100 µM each time. The TGI in [13] is 90.8 µM; in assay [14] it was more than 100 µM; in assay [15], more than 100 µM; in [16], more than 100 µM.
Regarding `COC(=O)[C@@H]1CS(=O)(=O)C(C(C)C)N1C(C)=O` (stereo partly drawn), the TGI in assay [1] was more than 100 µM; in [2] it was more than 100 µM; in assay [3], 32.1 µM; in assay [4], more than 100 µM; in assay [5], more than 100 µM; in [6], more than 100 µM. Moreover, the TGI in assay [7], in assay [8], in [9], in assay [10], in assay [11] and in assay [12] was more than 100 µM throughout. In addition, the TGI in assay [13], in assay [14], in assay [15] and in assay [16] was more than 100 µM throughout.
In the case of `NNC(=O)Nc1nc2ccc(NN)cc2[nH]1`, the TGI in [1] is 54 µM; in assay [2] it was 26.7 µM; in assay [3], 32.4 µM; in assay [4], more than 100 µM; in [5] it was more than 100 µM; in assay [6] it was 84.2 µM. For the same compound, the TGI in [7] is 77.3 µM; in assay [8] it was more than 100 µM; in assay [9], 43.2 µM; in assay [10], more than 100 µM; in assay [11], more than 100 µM; in assay [12], more than 100 µM. The TGI in [13], in [14], in assay [15] and in [16] was more than 100 µM in each case.
Turning to `CC(=O)n1cc(C2CC23N=C(c2ccccc2)OC3=O)c2ccccc21` (stereo not drawn), the TGI is 72.9 µM in [1]; 26.2 µM in assay [2]; 6.12 µM in assay [3]; 51.1 µM in assay [4]; more than 64.9 µM in assay [5]; 39.6 µM in assay [6]. Moreover, the TGI in assay [7] came out at 56.7 µM; in assay [8], 58.2 µM; in assay [9], 40.3 µM; in [10], 42 µM; in assay [11], 35.3 µM; in [12] it was 30.9 µM. The TGI stood at 46.4 µM in assay [13], 53.4 µM in assay [14], 31.9 µM in [15] and 44.5 µM in assay [16].
As to `COc1ccccc1-n1c(=O)n(C)c(=O)n1C(C)(C)C`, the TGI in [1], in assay [2], in assay [3], in assay [4], in assay [5] and in assay [6] was more than 100 µM in each case. Also, the TGI in assay [7], in assay [8], in assay [9], in assay [10], in assay [11] and in assay [12] was more than 100 µM throughout. In addition, the TGI in assay [13], in [14], in assay [15] and in assay [16] was more than 100 µM each time.

Values taken from PubChem BioAssay (NCI).
